Test results: patent publication US7378409B2, “Substituted cycloalkylamine derivatives as modulators of chemokine receptor activity” (Bristol-Myers Squibb Company, priority 2003, dated 2008)

Test: Long-term storage stability of the isolated salt
Type: physicochemical
Conditions: TFA salt of the title compound; converted to free base for that reason
Experimental: Example 3a, Step 5: A solution of (1R,3R,4S)-3-butyl-N1-isopropyl-N1-methylcyclohexane-1,4-diamine (58 mg, 0.25 mmol) in methylene chloride (5 mL) was charged successively with HATU (113 mg, 0.29 mmol), 2-(5-(trifluoromethyl)-1H-indazol-3-ylamino)acetic acid (58 mg, 0.22 mmol), and N,N-diisopropylethylamine (0.22 mL, 1.24 mmol). The reaction was stirred for 16 h at RT, concentrated in vacuo, and diluted with EtOAc. The organic phase was washed successively with sat. NaHCO3, water, 1N HCl, water, and brine before being dried (sodium sulfate), filtered, and concentrated in vacuo. […] Accordingly, this material was dissolved in EtOAc and the organic phase was washed with sat. NaHCO3 and brine before being dried (sodium sulfate), filtered, and concentrated in vacuo to afford the free base of the title compound, N-((1S,2R,4R)-2-butyl-4-(isopropyl(methyl)amino)cyclohexyl)-2-(5-(trifluoromethyl)-1H-indazol-3-ylamino)acetamide. MS found: (M+H)^+=468.4.

CCCC[C@@H]1C[C@H](N(C)C(C)C)CC[C@@H]1NC(=O)CNc1n[nH]c2ccc(C(F)(F)F)cc12 [Example 3a, N-((1S,2R,4R)-2-butyl-4-(isopropyl(methyl)amino)cyclohexyl)-2-(5-(trifluoromethyl)-1H-indazol-3-ylamino)acetamide]
stability to long-term storage: unstable to long-term storage
